We go through 6 compounds from ChEMBL document CHEMBL5634076, “Optimization of pyridylpiperazine-based inhibitors of the Escherichia coli AcrAB-TolC efflux pump” (Eur J Med Chem, 2023).

≈ marks a conversion by molar mass, not a printed value.

Data set [1] deals with T1, Multidrug efflux pump subunit AcrB (Escherichia coli (strain K12)) (UniProt P31224).
T1 sequence (whole entry): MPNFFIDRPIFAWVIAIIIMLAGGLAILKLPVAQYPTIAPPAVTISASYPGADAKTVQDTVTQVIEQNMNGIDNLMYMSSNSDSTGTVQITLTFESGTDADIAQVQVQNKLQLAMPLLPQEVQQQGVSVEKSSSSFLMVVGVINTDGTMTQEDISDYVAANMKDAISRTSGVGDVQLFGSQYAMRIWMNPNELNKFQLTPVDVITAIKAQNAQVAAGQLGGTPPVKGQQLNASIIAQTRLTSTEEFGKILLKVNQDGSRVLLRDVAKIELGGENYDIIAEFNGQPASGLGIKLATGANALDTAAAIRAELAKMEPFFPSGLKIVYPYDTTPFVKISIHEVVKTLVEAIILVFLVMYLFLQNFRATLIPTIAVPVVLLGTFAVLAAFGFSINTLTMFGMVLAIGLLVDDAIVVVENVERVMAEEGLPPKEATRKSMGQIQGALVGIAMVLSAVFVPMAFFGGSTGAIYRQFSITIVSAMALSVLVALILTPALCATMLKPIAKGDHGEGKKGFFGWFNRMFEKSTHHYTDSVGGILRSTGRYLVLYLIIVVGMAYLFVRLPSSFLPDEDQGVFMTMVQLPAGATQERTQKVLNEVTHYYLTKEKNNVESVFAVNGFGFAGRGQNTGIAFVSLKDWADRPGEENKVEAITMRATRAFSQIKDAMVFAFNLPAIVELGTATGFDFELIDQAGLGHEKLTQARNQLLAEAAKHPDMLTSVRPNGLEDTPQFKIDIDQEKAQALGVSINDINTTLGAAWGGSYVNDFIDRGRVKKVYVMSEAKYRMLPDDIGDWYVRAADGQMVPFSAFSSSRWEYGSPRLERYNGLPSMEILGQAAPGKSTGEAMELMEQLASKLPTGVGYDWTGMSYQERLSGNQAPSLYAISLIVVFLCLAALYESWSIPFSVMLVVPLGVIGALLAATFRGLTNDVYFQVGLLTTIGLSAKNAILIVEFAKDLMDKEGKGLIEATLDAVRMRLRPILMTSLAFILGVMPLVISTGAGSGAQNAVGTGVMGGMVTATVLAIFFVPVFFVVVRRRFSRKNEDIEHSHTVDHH
Description: Inhibition of AcrB in Escherichia coli BW25113 assessed as potentiation of pyridomycin-induced antibacterial activity incubated for 5 hrs by resazurin reduction assay.

Data set [2] deals with Escherichia coli. Put plainly: Antibacterial activity against Escherichia coli BW25113 assessed as reduction in bacterial growth incubated for 20 hrs by resazurin microtitre assay. Format: functional. (The colour change of resazurin is a common sign of viable cells or microbes.)
Data set [3] has as its system Escherichia coli. Put plainly: Antibacterial activity against Escherichia coli BW25113 assessed as reduction in bacterial growth incubated for 5 hrs by resazurin reduction assay. It is filed as functional.
The target of data set [4] is T1, Multidrug efflux pump subunit AcrB (Escherichia coli (strain K12)). Put plainly: Inhibition of AcrB in Escherichia coli BW25113 assessed as potentiation of pyridomycin-induced antibacterial activity incubated for 20 hrs by resazurin microtitre assay.
In data set [5] the test system is Escherichia coli. Description: Inhibition of AcrB Glu947Gln mutant in Escherichia coli BW25113 assessed as potentiation of pyridomycin-induced antibacterial activity incubated for 20 hrs by resazurin microtitre assay.
Data set [6] concerns Escherichia coli. Description: Inhibition of AcrB Ala446Pro mutant in Escherichia coli BW25113 assessed as potentiation of pyridomycin-induced antibacterial activity incubated for 20 hrs by resazurin microtitre assay.
Data set [7] has as its system Escherichia coli. Description: Inhibition of AcrB Ser450Pro mutant in Escherichia coli BW25113 assessed as potentiation of pyridomycin-induced antibacterial activity incubated for 20 hrs by resazurin microtitre assay.
For data set [8], the system named is Escherichia coli. Description: Inhibition of AcrB Asp951Asn mutant in Escherichia coli BW25113 assessed as potentiation of pyridomycin-induced antibacterial activity incubated for 20 hrs by resazurin microtitre assay.
Data set [9] deals with Escherichia coli. Put plainly: Selectivity ratio of EC90 for inhibition of AcrB Glu947Gln mutant in Escherichia coli BW25113 to inhibition of AcrB in Escherichia coli BW25113 incubated for 20 hrs by resazurin microtitre assay.
In data set [10] the test system is Escherichia coli. Put plainly: Selectivity ratio of EC90 for inhibition of AcrB Asp951Asn mutant in Escherichia coli BW25113 to inhibition of AcrB in Escherichia coli BW25113 incubated for 20 hrs by resazurin microtitre assay.
Data set [11] has as its system Escherichia coli. Put plainly: Potentiation of chloramphenicol induced antibacterial activity in Escherichia coli BW25113 assessed as chloramphenicol MIC at 100 uM incubated for 20 hrs by resazurin microtitre assay (reference value: 8 ug/ml). Format: functional.
The subject of data set [12] is Escherichia coli. Description: Potentiation of oxacillin induced antibacterial activity in Escherichia coli BW25113 assessed as oxacillin MIC at 100 uM incubated for 20 hrs by resazurin microtitre assay (Rvb > 128 ug/ml). Format: functional.
Data set [13] relates to Escherichia coli. Description: Potentiation of piperacillin induced antibacterial activity in Escherichia coli BW25113 assessed as piperacillin MIC at 100 uM incubated for 20 hrs by resazurin microtitre assay (reference value: 4 ug/ml). Format: functional.
The subject of data set [14] is Escherichia coli. Put plainly: Potentiation of fusidic acid induced antibacterial activity in Escherichia coli BW25113 assessed as fusidic acid MIC at 100 uM incubated for 20 hrs by resazurin microtitre assay (Rvb > 128 ug/ml). It is filed as functional.
The subject of data set [15] is Escherichia coli. Description: Potentiation of novobiocin induced antibacterial activity in Escherichia coli BW25113 assessed as novobiocin MIC at 100 uM incubated for 20 hrs by resazurin microtitre assay (reference value: 80 ug/ml). It is filed as functional.
Data set [16] concerns Escherichia coli. Put plainly: Potentiation of linezolid induced antibacterial activity in Escherichia coli BW25113 assessed as linezolid MIC at 100 uM incubated for 20 hrs by resazurin microtitre assay (Rvb > 128 ug/ml). Format: functional.
For data set [17], the system named is Escherichia coli. Put plainly: Potentiation of erythromycin induced antibacterial activity in Escherichia coli BW25113 assessed as erythromycin MIC at 100 uM incubated for 20 hrs by resazurin microtitre assay (reference value: 128 ug/ml). It is filed as functional.
The subject of data set [18] is Escherichia coli. Description: Potentiation of ciprofloxacin induced antibacterial activity in Escherichia coli BW25113 assessed as ciprofloxacin MIC at 100 uM incubated for 20 hrs by resazurin microtitre assay (reference value: 0.01 ug/ml). Format: functional.
Data set [19] relates to Escherichia coli. Put plainly: Potentiation of chloramphenicol induced antibacterial activity in Escherichia coli BW25113 assessed as fold change in chloramphenicol MIC at 100 uM incubated for 20 hrs by resazurin microtitre assay. It is filed as functional.
Data set [20] deals with Escherichia coli. Put plainly: Potentiation of oxacillin induced antibacterial activity in Escherichia coli BW25113 assessed as fold change in oxacillin MIC at 100 uM incubated for 20 hrs by resazurin microtitre assay. It is filed as functional.
The test system of data set [21] is Escherichia coli. Put plainly: Potentiation of piperacillin induced antibacterial activity in Escherichia coli BW25113 assessed as fold change in piperacillin MIC at 100 uM incubated for 20 hrs by resazurin microtitre assay. Format: functional.
The subject of data set [22] is Escherichia coli. Put plainly: Potentiation of fusidic acid induced antibacterial activity in Escherichia coli BW25113 assessed as fold change in fusidic acid MIC at 100 uM incubated for 20 hrs by resazurin microtitre assay. Format: functional.
The subject of data set [23] is Escherichia coli. Description: Potentiation of novobiocin induced antibacterial activity in Escherichia coli BW25113 assessed as fold change in novobiocin MIC at 100 uM incubated for 20 hrs by resazurin microtitre assay. It is filed as functional.
Data set [24] deals with Escherichia coli. Put plainly: Potentiation of linezolid induced antibacterial activity in Escherichia coli BW25113 assessed as fold change in linezolid MIC at 100 uM incubated for 20 hrs by resazurin microtitre assay. Format: functional.
For data set [25], the system named is Escherichia coli. Description: Potentiation of erythromycin induced antibacterial activity in Escherichia coli BW25113 assessed as fold change in erythromycin MIC at 100 uM incubated for 20 hrs by resazurin microtitre assay. It is filed as functional.
Data set [26] concerns Escherichia coli. Put plainly: Potentiation of ciprofloxacin induced antibacterial activity in Escherichia coli BW25113 assessed as fold change in ciprofloxacin MIC at 100 uM incubated for 20 hrs by resazurin microtitre assay. It is filed as functional.
A short description of data set [27]: Solubility of compound in PBS at pH 7.4 incubated for 24 hrs by LC-MS/MS analysis. It is filed as physicochemical.
The nature of data set [28]: Stability in mouse plasma assessed as half life at 10 uM measured up to 360 mins by LC-MS/MS analysis. Format: ADME, cell-free.
Data set [29] in a line: Stability in CD-1 mouse liver microsomes assessed as half life at 1 uM measured up to 40 mins by LC-MS/MS analysis. It is filed as ADME, Microsome. Background: Microsomes from liver hold many membrane-bound enzymes, among them those of drug oxidation.
A short description of data set [30]: Stability in CD-1 mouse liver microsomes assessed as intrinsic clearance at 1 uM measured up to 40 mins by LC-MS/MS analysis. Format: ADME, Microsome. To be noted: read-out: CLH.
Data set [31] in a line: Solubility of compound in DMSO at > 125 uM. It is filed as physicochemical.
The target of data set [32] is T1, Multidrug efflux pump subunit AcrB (Escherichia coli (strain K12)). Put plainly: Potency index, ratio of BDM88832 EC90 to test compound EC90 for inhibition of AcrAB-TolC in Escherichia coli BW25113.
In data set [33] the test system is Escherichia coli. Put plainly: Antibacterial activity against Escherichia coli BW25113 harboring acrB deletion mutant assessed as reduction in bacterial growth incubated for 20 hrs by resazurin microtitre assay. It is filed as functional.

One may read the EC90 as the concentration at which the effect reaches the 90% level. In general, MIC refers to the lowest concentration that inhibits growth of the organism. By MIC90 is commonly meant the lowest concentration that inhibits either 90% of growth or 90% of the strains tested, depending on the study. Consider `FC(F)(F)c1cnc(N2CCNCC2)c(Cl)c1`, for which the EC90 in data set [1] was found to be 62 µM. Moreover, in data set [2], the MIC is > 250 µM. In addition, the MIC90 in data set [3] is > 500 µM.
For orientation: solubility means the dissolved amount per volume that the medium holds. What is called half-life is how long it takes for the measured level to halve. On to `Cl.Cl.NCCc1nc(-c2cnc(N3CCNCC3)c(Cl)c2)no1`, for which the MIC in [2] was > 250 µM. In addition, the 90% effect concentration (EC90) in [4] is 8 µM; in [5] it was > 250 µM; in data set [6] it was > 250 µM; in data set [7], > 250 µM; in [8] it was > 250 µM. Also, the Ratio in [9] and in data set [10] was > 31 throughout. Moreover, the MIC95 in data set [11] is 2 µg/mL; in [12] it was 40 µg/mL; in data set [13], < 0.5 µg/mL; in data set [14], 32 µg/mL; in [15] it was 10 µg/mL; in [16], 16 µg/mL. In addition, the figures for the MIC95 in data set [17] and in [18] were 16 µg/mL and < 5 ng/mL, respectively. In addition, the “fold change (FC)” value in [19] was 4; in data set [20], 3; in [21], >8; in [22], 4; in data set [23], 8; in data set [24], 8. Moreover, the “fold change (FC)” value was 8 in data set [25] and >2 in data set [26]. The solubility at 24 h in [27] was > 200 µM. Also, the half-life at 10 µM in data set [28] is > 360 min. Moreover, in data set [29], the half-life at 1 µM is > 40 min. Also, in data set [30], the microsomal CLint at 1 µM is < 2 µL/min/mg.
Turning to `Cc1noc(-c2cnc(N3CCNCC3)c(Cl)c2)n1.Cl`, the MIC in data set [2] is > 125 µM. Also, the EC90 in [4] is > 125 µM. In data set [31], the solubility result is given as “Soluble”.
Regarding `Cl.Cl.NCc1cccc(OC(=O)c2cnc(N3CCNCC3)c(Cl)c2)c1`, in data set [2], the MIC was > 250 µM. For the same compound, the EC90 was 0.6 µM in data set [4]; > 62 µM in data set [5]; > 62 µM in [6]; > 62 µM in data set [7]; 62 µM in [8]. Further, the figures for the Ratio in [9], in data set [10] and in data set [32] were > 103, 103 and 20, respectively. For the same compound, the MIC95 is 2 µg/mL in data set [11]; 5 µg/mL in data set [12]; < 0.5 µg/mL in [13]; 5 µg/mL in data set [14]; 1.2 µg/mL in data set [15]; 8 µg/mL in data set [16]. Besides, the MIC95 in data set [17] was 4 µg/mL; in [18], < 5 ng/mL. The “fold change (FC)” value is on record as 4 in data set [19]; >26 in data set [20]; >8 in data set [21]; >26 in data set [22]; 64 in data set [23]; >16 in data set [24]. The “fold change (FC)” value in data set [25] is reported as 32; in data set [26], >2. The compound also displayed a solubility at 24 h in [27] of 180 µM.
Turning to `CC/C(C)=C1\OC(=O)[C@H](C)[C@H](O)[C@H](Cc2cccnc2)NC(=O)[C@@H](NC(=O)c2ncccc2O)[C@@H](C)OC1=O` [PYRIDOMYCIN], the minimum inhibitory concentration (MIC) in data set [2] came out at 12.5 µg/mL; in [33] it was 0.78 µg/mL (≈ 1.44 µM).
As to `Clc1cc(I)cnc1N1CCNCC1`, in data set [1], the EC90 was 12 µM. For the same compound, the minimal inhibitory concentration (MIC) in [2] is > 250 µM. Moreover, the solubility at 24 h in data set [27] is > 200 µM. Besides, the half-life at 10 µM in data set [28] was > 360 min. In addition, in [29], the half-life at 1 µM was 9 min. For the same compound, in data set [30], the microsomal CLint at 1 µM stood at 241 µL/min/mg.
